Three compounds from patent publication US11208412B2 (DAEGU-GYEONGBUK MEDICAL INNOVATION FOUNDATION, priority 2017, dated 2021) can be followed below.

What all share (test): Kinase selectivity, DiscoverX scanMAX Kinase assay panel (% control)
Format in all cases: binding

In test [1] the target is T1, kinases of the scanMAX Kinase assay panel (Homo sapiens, UniProt Q9UEW8).
T1 construct: purchased DiscoverX Co. (contract measurement) scanMAX Kinase assay panel
The following applies: kinase STK39; 1 uM in DMSO. In outline: (§1)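 Each enzyme is treated with drug at 1 uM in DMSO, then signal is scaled between a positive control (0%) and DMSO (100%) to give % control. Kinases with % control under 35% are scored as inhibited.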

Test [2] deals with T2, kinases of the scanMAX Kinase assay panel (Homo sapiens, UniProt P36507).
T2 construct: purchased DiscoverX Co. (contract measurement) scanMAX Kinase assay panel
T2 sequence (P36507 whole entry): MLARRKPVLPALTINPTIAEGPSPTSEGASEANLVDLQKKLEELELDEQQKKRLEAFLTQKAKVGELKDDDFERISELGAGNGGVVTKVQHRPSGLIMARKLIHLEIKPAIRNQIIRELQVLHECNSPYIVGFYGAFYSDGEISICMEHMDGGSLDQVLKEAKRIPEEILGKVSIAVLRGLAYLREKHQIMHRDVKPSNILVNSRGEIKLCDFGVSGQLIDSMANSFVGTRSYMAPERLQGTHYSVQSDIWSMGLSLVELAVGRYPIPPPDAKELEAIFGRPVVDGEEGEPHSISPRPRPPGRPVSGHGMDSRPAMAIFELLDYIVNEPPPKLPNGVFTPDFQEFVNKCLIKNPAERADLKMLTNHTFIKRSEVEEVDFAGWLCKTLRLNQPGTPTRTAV
The following applies: MEK2; 1 uM. In outline:
as §1

Test [3] addresses T3, kinases of the scanMAX Kinase assay panel (Homo sapiens, UniProt P36888, N841I).
T3 construct: purchased DiscoverX Co. (contract measurement) scanMAX Kinase assay panel
T3 sequence (P36888 27-993 N841I): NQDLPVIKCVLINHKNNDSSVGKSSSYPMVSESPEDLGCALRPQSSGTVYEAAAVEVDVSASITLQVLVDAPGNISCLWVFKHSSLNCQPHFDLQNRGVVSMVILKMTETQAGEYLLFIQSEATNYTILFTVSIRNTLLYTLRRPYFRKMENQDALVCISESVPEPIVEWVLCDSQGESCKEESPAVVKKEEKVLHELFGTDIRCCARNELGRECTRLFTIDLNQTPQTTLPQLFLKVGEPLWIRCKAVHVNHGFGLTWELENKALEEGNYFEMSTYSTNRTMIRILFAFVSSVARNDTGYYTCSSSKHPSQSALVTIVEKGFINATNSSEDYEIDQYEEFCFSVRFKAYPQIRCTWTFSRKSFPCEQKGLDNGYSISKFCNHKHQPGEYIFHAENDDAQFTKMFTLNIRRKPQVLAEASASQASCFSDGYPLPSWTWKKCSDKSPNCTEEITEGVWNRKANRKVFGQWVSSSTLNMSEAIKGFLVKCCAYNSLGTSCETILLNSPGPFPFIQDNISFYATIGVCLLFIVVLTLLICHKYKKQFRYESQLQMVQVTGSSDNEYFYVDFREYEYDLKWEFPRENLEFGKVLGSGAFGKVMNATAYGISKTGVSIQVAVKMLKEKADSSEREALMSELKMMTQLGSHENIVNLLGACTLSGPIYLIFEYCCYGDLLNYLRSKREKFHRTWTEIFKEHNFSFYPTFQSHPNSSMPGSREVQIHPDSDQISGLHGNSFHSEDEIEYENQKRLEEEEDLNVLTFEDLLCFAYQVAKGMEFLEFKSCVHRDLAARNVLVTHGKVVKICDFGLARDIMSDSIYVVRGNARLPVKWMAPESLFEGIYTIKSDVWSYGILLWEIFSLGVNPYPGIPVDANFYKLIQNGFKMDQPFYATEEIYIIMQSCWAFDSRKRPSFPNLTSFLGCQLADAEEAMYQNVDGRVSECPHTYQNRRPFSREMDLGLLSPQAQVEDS
The following applies: FLT3(N841I); 1 uM. In outline: as §1

For test [4], the target named is T4, kinases of the scanMAX Kinase assay panel (Homo sapiens, UniProt Q14012).
T4 construct: purchased DiscoverX Co. (contract measurement) scanMAX Kinase assay panel
T4 sequence (Q14012 whole entry): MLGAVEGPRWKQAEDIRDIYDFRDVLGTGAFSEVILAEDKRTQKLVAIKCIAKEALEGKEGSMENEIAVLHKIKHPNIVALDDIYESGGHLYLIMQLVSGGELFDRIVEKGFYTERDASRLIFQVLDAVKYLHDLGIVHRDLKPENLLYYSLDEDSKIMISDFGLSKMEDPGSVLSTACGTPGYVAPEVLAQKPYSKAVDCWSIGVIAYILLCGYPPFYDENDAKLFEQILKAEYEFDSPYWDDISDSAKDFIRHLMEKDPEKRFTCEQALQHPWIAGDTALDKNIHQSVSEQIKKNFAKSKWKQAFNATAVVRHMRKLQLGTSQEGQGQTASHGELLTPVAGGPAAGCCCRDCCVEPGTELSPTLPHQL
The following applies: CAMK1; 1 uM. In outline: as §1

Test [5] deals with T5, kinases of the scanMAX Kinase assay panel (Homo sapiens, UniProt Q13523).
T5 construct: purchased DiscoverX Co. (contract measurement) scanMAX Kinase assay panel
T5 sequence (Q13523 whole entry): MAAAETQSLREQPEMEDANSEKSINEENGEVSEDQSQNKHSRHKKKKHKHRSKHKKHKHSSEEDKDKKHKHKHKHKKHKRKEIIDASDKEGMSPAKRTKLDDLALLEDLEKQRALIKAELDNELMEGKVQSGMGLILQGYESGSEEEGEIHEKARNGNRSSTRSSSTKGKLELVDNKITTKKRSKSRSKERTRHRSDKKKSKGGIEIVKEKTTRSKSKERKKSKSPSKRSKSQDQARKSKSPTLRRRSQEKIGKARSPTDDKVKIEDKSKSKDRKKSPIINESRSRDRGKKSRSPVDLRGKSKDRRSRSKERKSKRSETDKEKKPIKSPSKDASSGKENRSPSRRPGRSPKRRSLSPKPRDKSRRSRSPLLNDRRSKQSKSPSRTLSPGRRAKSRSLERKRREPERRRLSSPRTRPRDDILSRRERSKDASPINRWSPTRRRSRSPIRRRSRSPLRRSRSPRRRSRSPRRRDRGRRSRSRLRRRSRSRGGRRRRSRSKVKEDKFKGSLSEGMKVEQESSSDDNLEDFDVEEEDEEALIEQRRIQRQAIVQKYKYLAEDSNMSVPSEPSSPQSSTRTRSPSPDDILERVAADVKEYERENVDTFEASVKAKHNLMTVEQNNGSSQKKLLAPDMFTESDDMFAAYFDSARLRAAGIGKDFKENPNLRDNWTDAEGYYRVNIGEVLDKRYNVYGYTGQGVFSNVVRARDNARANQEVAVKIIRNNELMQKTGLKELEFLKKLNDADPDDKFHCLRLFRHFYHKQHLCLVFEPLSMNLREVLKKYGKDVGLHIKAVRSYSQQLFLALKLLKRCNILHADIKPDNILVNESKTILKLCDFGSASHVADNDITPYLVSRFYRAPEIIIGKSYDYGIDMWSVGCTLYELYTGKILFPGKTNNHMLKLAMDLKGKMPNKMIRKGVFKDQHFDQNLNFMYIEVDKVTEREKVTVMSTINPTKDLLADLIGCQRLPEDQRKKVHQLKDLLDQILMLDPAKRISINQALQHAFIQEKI
The following applies: PRP4; 1 uM. In outline: as §1

Test [6] concerns the target T6, kinases of the scanMAX Kinase assay panel (Homo sapiens, UniProt Q96PY6).
T6 construct: purchased DiscoverX Co. (contract measurement) scanMAX Kinase assay panel
T6 sequence (Q96PY6 1-1258): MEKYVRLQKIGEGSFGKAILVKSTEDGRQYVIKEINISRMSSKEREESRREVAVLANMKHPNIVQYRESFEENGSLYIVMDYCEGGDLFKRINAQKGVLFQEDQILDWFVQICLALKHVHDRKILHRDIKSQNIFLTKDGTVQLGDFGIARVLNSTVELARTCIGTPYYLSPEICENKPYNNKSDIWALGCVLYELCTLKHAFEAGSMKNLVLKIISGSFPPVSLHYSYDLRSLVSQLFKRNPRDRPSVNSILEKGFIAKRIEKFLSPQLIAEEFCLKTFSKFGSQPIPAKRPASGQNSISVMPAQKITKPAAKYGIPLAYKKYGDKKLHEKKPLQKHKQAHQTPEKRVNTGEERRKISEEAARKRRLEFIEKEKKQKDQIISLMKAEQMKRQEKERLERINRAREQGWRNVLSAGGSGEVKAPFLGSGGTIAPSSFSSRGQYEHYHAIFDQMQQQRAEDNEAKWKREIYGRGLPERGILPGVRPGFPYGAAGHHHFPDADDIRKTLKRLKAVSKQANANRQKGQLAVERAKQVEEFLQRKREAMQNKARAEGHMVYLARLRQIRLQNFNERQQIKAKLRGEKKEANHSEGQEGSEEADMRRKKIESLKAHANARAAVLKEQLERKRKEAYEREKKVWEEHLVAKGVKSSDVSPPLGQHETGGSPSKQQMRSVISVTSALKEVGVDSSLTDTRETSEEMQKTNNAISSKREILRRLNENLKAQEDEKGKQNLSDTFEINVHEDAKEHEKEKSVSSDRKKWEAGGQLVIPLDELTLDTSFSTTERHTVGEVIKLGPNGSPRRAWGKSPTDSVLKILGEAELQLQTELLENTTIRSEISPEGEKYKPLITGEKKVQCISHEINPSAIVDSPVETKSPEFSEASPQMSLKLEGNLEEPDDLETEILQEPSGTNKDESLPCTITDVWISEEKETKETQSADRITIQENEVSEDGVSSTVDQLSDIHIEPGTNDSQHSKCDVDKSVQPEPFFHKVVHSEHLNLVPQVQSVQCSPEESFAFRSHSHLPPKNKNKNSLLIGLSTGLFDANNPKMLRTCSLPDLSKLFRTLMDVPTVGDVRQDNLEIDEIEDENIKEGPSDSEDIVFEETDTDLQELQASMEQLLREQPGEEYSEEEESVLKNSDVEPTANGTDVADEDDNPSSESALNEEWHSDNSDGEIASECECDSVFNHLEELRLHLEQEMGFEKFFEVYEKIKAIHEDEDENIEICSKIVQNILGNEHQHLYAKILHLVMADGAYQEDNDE
The following applies: NEK1; 1 uM. In outline:
as §1

Test [7] addresses T7, kinases of the scanMAX Kinase assay panel (Homo sapiens, UniProt Q13554).
T7 construct: purchased DiscoverX Co. (contract measurement) scanMAX Kinase assay panel
The following applies: CAMK2B; 1 uM. In outline:
as §1

T7 sequence (Q13554 whole entry): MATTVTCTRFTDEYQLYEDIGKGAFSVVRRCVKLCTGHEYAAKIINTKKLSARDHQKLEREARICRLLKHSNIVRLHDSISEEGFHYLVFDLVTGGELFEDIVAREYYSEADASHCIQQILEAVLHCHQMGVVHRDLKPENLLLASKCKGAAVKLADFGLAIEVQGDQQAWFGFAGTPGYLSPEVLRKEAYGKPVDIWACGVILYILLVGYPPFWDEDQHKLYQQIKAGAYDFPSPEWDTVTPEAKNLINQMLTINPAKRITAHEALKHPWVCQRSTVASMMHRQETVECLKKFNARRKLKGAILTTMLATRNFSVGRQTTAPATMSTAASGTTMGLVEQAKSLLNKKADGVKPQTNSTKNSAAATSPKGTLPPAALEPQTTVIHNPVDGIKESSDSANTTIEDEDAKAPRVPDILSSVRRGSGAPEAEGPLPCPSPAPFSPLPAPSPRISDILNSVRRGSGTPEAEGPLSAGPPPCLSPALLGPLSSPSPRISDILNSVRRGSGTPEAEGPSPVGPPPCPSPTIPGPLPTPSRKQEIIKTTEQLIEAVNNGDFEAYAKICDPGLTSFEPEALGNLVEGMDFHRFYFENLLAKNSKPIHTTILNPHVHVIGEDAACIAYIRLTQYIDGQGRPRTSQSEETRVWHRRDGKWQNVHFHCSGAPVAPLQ

Regarding `CNc1nc(Nc2ccc(C(=O)N3CCOCC3)cc2OC)nc2[nH]cc(C#N)c12` [Example 1, 2-((2-methoxy-4-(morpholine-4-carbonyl)phenyl)amino)-4-(methylamino)-7H-pyrrolo[2,3-d]pyrimidine-5-carbonitrile], the remaining binding at 1 µM in test [1] was found to be 14%; in test [2], 93%; in test [3], 90%; in test [4], 59%; in test [5], 100%; in test [6] it was 94%. Besides, in test [7], the remaining binding at 1 µM was 62%.

In the case of `CC1(Nc2nc(Nc3cnn([C@H]4CCN(C5COC5)C[C@@H]4F)c3Cl)nc3[nH]cc(C#N)c23)CC1` [Example 52, 2-((5-chloro-1-((3S,4S)-3-fluoro-1-(oxetane-3-yl)piperidine-4-yl)-1H-pyrazole-4-yl)amino)((1-methylcyclopropyl)amino)-7H-pyrrolo[2,3-d]pyrimidine-5-carbonitrile], the remaining binding at 1 µM in test [1] came out at 0%; in test [2], 0.3%; in test [3], 0%; in test [4], 6.8%; in test [5] it was 19%; in test [6], 80%. The same compound registered a remaining binding at 1 µM in test [7] of 57%.

`CCNc1nc(Nc2ccc(C(=O)N3CCC(N4CCOCC4)CC3)cc2OC)nc2[nH]cc(C(F)(F)F)c12` [Example 104, (4-((4-(ethylamino)-5-(trifluoromethyl)-7H-pyrrolo[2,3-d]pyrimidine-2-yl)amino)-3-methoxyphenyl)(4-morpholinopiperidine-1-yl)methanone]: the remaining binding at 1 µM was found to be 30% in test [1]; 83% in test [2]; 51% in test [3]; 72% in test [4]; 89% in test [5]; 93% in test [6]. In test [7], the remaining binding at 1 µM amounted to 81%.
